{
  "source": "patent US7670782B2",
  "about": "“Screening of compounds for CAT1 transporter activity” (XenoPort, Inc., priority 2005, dated 2010)",
  "key": {"[1]": {"molecular_target": "T1, hCAT1 (Homo sapiens, UniProt P30825)", "T1 construct": "expressed in transfected cells; host or cells: LLCPK-TREx (porcine kidney epithelial) cells, induced with tetracycline and butyrate", "T1 sequence (P30825 whole entry)": "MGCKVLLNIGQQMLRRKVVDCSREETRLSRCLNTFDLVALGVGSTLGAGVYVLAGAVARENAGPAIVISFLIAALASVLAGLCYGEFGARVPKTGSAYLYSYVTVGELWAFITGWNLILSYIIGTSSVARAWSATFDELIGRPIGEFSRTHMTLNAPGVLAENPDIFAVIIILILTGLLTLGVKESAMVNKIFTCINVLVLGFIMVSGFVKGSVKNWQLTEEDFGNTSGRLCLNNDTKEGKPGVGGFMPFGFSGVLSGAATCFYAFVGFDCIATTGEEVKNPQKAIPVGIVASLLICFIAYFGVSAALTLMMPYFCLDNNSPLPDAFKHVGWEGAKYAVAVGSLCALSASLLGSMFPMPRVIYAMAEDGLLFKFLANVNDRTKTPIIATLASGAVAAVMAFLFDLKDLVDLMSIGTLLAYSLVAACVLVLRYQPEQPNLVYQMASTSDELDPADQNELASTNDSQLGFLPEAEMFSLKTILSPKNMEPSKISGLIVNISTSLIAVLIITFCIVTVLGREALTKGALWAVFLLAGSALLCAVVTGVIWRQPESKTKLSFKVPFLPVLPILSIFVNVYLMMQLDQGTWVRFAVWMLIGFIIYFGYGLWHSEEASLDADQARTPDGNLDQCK", "experiment": "hCAT1 competition uptake assay (inhibition of 3H-arginine uptake into LLCPK-TREx-hCAT1 cells)", "format": "cell-based", "conditions": "3H-arginine as substrate; for IC50: LLCPK-TREx-hCAT1 cells induced to express hCAT1, 10 minutes at room temperature", "procedure": "A modified competition uptake assay was developed to determine the ability of a test compound(s) to inhibit the uptake of radiolabeled substrates into LLCPK-TREx-hCAT1 cells induced to over-express hCAT1. The results are stated as affinities (IC50).\nThe competition uptake assay was prepared as follows: Compounds were prepared for assay by diluting a 100 mM stock concentration (in DMSO) to the appropriate working concentration. Typically, seven-point dose response curves were prepared starting at a final assay concentration of 3 mM and carrying out three-fold dilutions. These dilutions were prepared by making a working “compound” plate that contained a 2×solution of the desired starting concentration of each test compound in duplicate in row A of a v-bottom microtiter plate. Six 3-fold serial dilutions (from row B to G) were made into the sodium free HBSS assay buffer (60 mg/L KH2PO4 (0.4 mM) (Sigma; P-0662); 0.42 g/L KHCO3 (4.17 mM); (Sigma; P-6037); 1 g/L Glucose ([…]) (Sigma; G-7528); 2.1 g/L MOPS (10 mM) (Sigma; M-1254); 1.05 ml/L MgCl2.(H2O)6 (Sigma; M-1028); 100 mg/L MgSO4.(H2O)7 (Sigma; M-5921); 140 mg/L CaCl2 (1.3 mM)(Sigma; C-5080); 19.1 g/L Choline Chloride (137 mM) (Sigma; C-7527), pH to 7.4 with KOH) with the appropriate amount of DMSO so that the DMSO concentration remained constant at all dilutions. The resulting “compound” plate contained serial dilutions of six compounds in duplicate. The final row (H) of the assay plate was filled with HBSS buffer alone (H1-H6) or 10 mM unlabeled Arginine in HBSS (H7-H12) to measure the total or non-specific uptake, respectively.\n^3H-Arginine was diluted into HBSS buffer to a final concentration of 4,000 cpm/μl. Sufficient solution was prepared to allow addition of 25 μl/well (the final concentration was 100,000 cpm/well).\nLLCPK-TREx-hCAT1 cells, plated in 96-well plates and treated with 2 mM butyrate and tetracycline (or tet analog (e.g., doxycycline), were removed from the CO2 incubator. Growth media was removed from the cells, and the cells were washed twice in room temperature HBSS (100 μl/well/wash) using a 96-well plate washer (Bio Tek ELX405). Alternatively, cells were washed manually with equivalent volumes using a multichannel pipettor. Immediately before beginning the assay, the final 100 μl wash solution was removed from the cells by aspiration.\nUsing a 96-well pipettor, 25 μl from the “compound” plate was added to each well of the cell plate. The assay was started by adding 25 μl of the ^3H-Arginine working solution. The plate was incubated at room temperature for 10 minutes. The assay was stopped by washing the cells four times with ice-cold HBSS buffer using a ELX405 plate washer (100 μl buffer/well/wash) having an angled buffer dispenser.\nScintillation fluid (200 μl) (Optiphase Supermix (Perkin Elmer) was added to each well, and the plate was covered with a 96-well adhesive plate cover and placed on a shaker for 20 minutes. The plates were counted on a 96-well plate scintillation counter for 60 sec/well. The data were analyzed using a sigmoidal dose response curve-fitting program (Prism, GraphPad, Inc, San Diego, Calif.; equation: one-site competition).\nThe competition experiment was performed as described in Example 7. Non-specific uptake was determined by measuring the uptake into cells not induced to express the transporter (“no tet”). […] In control cells, uptake of labeled arginine remained at background levels and was largely unaffected by an excess of unlabeled substrates."}, "[2]": {"molecular_target": "T2, PgP (Homo sapiens, UniProt P08183)", "T2 construct": "purchased BD Biosciences; host or cells: baculovirus membranes", "T2 sequence (P08183 whole entry)": "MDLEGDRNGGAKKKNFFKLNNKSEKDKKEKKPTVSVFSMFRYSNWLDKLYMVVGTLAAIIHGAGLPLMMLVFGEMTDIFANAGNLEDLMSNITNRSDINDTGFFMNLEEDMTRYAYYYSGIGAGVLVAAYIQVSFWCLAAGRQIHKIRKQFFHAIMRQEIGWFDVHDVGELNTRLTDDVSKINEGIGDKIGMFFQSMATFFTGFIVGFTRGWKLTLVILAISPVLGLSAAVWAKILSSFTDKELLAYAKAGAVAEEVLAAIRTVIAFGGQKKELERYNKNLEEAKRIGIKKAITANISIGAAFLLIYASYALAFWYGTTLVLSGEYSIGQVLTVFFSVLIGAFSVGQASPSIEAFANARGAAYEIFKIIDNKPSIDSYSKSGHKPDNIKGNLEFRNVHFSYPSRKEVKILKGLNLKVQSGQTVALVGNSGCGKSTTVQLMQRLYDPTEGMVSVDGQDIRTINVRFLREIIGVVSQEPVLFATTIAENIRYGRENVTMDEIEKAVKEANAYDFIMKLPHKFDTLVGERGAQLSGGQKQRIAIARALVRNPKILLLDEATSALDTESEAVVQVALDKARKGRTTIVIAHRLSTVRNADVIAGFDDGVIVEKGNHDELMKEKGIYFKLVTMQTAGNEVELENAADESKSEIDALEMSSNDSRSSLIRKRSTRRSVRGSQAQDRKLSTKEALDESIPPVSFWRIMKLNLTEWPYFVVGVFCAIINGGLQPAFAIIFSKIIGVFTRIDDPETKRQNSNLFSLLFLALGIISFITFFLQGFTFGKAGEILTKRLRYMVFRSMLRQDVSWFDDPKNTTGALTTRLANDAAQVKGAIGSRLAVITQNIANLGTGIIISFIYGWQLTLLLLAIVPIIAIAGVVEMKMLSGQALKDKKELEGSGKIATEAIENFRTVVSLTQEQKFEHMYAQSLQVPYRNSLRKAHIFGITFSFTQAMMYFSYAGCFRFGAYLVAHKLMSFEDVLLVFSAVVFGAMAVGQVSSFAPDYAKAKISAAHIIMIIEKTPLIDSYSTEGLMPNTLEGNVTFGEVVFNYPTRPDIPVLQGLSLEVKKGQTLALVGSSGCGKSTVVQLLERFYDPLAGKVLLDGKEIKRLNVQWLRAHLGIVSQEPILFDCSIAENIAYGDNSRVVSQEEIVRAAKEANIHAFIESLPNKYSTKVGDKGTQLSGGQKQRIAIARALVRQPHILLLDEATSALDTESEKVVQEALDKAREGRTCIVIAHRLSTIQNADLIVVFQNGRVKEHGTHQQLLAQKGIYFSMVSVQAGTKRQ", "experiment": "Transwell monolayer efflux assay in MDCK cells transfected with TREx-PgP", "format": "in vitro ADME", "conditions": "2.5 nM 3H-vinblastine, absence and presence of 250 μM verapamil", "procedure": "Transwell monolayer efflux assays can be performed by transfecting MDCK cells with the tetracycline-inducible TREx-PgP expression vector. The cells optionally can be transfected with a nucleic acid encoding the transporter of interest. The transfected cells are seeded on polycarbonate filter membranes in transwell dishes and grown for 3-5 days, yielding a polarized monolayer with tight junctions between cells."}, "[3]": {"molecular_target": "T1, hCAT1", "experiment": "hCAT1 direct uptake assay (LC-MS-MS, LLCPK-TREx-hCAT1 cells induced vs no tet)", "format": "cell-based", "conditions": "direct uptake into LLCPK-TREx-hCAT1 cells", "procedure": "Four concentrations (bracketing the affinity as measured by competition assays) per compound were routinely tested. Non-specific uptake was determined by measuring the uptake into cells not induced to express the transporter (“no tet”).\nTypically, four concentrations bracketing the IC50 were tested. […] The samples were robustly vortexed and centrifuged for 10 minutes at 13,200 rpm to spin down any precipitate. […] Three additional 2-fold dilutions were made in the subsequent rows (B-D or […]) in HBSS.\nAn internal standard of 50 μM propranolol in 50:50 ethanol:water was also prepared.\nThe cells were washed twice in room temperature HBSS (100 μl/well/wash) using a 96-well plate washer (Bio Tek ELX405). Alternatively, cells were washed manually with equivalent volumes using a multichannel pipettor. Immediately before the assay was begun, the final 100 μl wash solution was removed from the cells.\nAfter the final wash, as much of the wash buffer as possible was removed by aspirating the wells with a probe that reached the bottom of the wells. (Residual salts from the wash buffer can adversely affect the LC-MS-MS by disrupting the LC method or by suppressing the MS signal.) 150 μl of a 50:50 ethanol:water solution was added to each well to lyse the cells and extract the test compound. The plate was covered and allowed to sit for 20 minutes at room temperature to ensure cell lysis.\n120 μl of the cell extract was removed from each well and transferred to a fresh 96-well v-bottom polypropylene plate. This plate was covered with an adherent cover (top seal) and centrifuged for 15 minutes at 5,700 rpm (Allegra 25R centrifuge) at 4° C. to pellet any cell precipitate. 10 μl of the 50 μM propranolol solution was added to each well of a fresh 96-well plate (a plate amenable for sampling in the LC-MS-MS). […] The levels of intracellular compounds were determined by converting the peak area to concentration by extrapolating from the standard curve for each compound. Uptake was expressed as μM/well."}},
  "data": [
    {"compound": "N=C(N)NCCC[C@H](N)C(=O)O", "note": "[Arginine, arginine]", "values": [
      {"measurement": "IC50", "setting": "[1]", "value": 83, "unit": "µM"}
    ]},
    {"compound": "NCCCC[C@H](N)C(=O)O", "note": "[Lysine, lysine]", "values": [
      {"measurement": "IC50", "setting": "[1]", "value": 140, "unit": "µM"}
    ]},
    {"compound": "NCCC[C@H](N)C(=O)O", "note": "[Ornithine, ornithine]", "values": [
      {"measurement": "IC50", "setting": "[1]", "value": 73, "unit": "µM"}
    ]},
    {"compound": "CC[C@]1(O)C[C@@H]2CN(CCc3c([nH]c4ccccc34)[C@@](C(=O)OC)(c3cc4c(cc3OC)N(C)[C@H]3[C@@](O)(C(=O)OC)[C@H](OC(C)=O)[C@]5(CC)C=CCN6CC[C@]43[C@@H]65)C2)C1", "note": "[^3H-vinblastine, vinblastine]", "values": [
      {"measurement": "PgP substrate status from apical to basolateral and basolateral to apical transport", "setting": "[2]", "value": "substrate of PgP"}
    ]},
    {"compound": "N-methyl arginine [N-Me-Arg]", "values": [
      {"measurement": "pKm", "setting": "[3]", "value": 3.8},
      {"measurement": "Vmax", "setting": "[3]; 5 minutes at room temperature", "value": 3.9, "unit": "μM/well"},
      {"measurement": "Km", "setting": "[3]; 5 minutes at room temperature, specific uptake (+TET minus no TET)", "value": 158, "unit": "µM"},
      {"measurement": "pIC50", "setting": "[1]; LLCPK-TREx-hCAT1 cells induced to express hCAT1", "value": 3.7},
      {"measurement": "IC50", "setting": "[1]", "value": 190, "unit": "µM"}
    ]}
  ]
}
